From paper PMC8617031, “Development of a BCL-xL and BCL-2 dual degrader with improved anti-leukemic activity,” (Nature Communications, 2021)
Values joined by “and” are separate entries in the source; they are usually repeats but may differ in a detail not shown here. Identical values can stand only once.

What was measured:
[1] = Viability (MTS) of 293T cells; format: cell-based, human; conditions: human
How it was run: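 Adherent cells treated after overnight attachment, nine concentrations in triplicate. After 72 h, MTS/PMS added and incubated 4 h at 37 °C before absorbance at 490 nm. Background-subtracted viability expressed as percent of untreated controls and fitted by non-linear regression.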

[2] = tested on: Flag-BCL-xL (WT and lysine mutants); assay: Degradation of Flag-BCL-xL WT and lysine mutants in transfected 293T cells; format: cell-based, human; conditions: DMSO = 100
Experimental: Cells were collected, washed once with ice-cold phosphate-buffered saline, pH 7.2 (PBS, cat. no. 20012027; Thermo Fisher Scientific) and lysed in RIPA lysis buffer (Cat. No. BP-115DG, Boston Bio Products, Ashland, MA, USA) supplemented with protease and phosphatase inhibitor cocktails (Cat. No. PPC1010, Sigma-Aldrich, St. Louis, MO, USA) through sonication. The samples were centrifuged at 14,000 r.p.m. for 5 min and the supernatants were transferred into a new tube. The protein concentration in the supernatants was determined using the Pierce BCA protein Assay kit (cat. no. 23225, Thermo Fisher Scientific). The protein concentration was normalized, and the samples were reduced in 4× Laemmli’s SDS-sample buffer (cat. no. BP-110R, Boston Bio Products) and denatured at 95 °C for 5 min. An equal amount of protein samples (20–40 μg per lane) were resolved using precast 4–20% Tris-glycine gels (Mini-PROTEAN TGX, cat. no. 456–1094, Bio-Rad), and resolved proteins were transferred onto 0.2-µm pore size polyvinylidene difluoride (PVDF) blotting membranes (cat. no. LC2002, Thermo Fisher Scientific) using mini trans-blot electrophoretic transfer cell (Bio-Rad). The membranes were blocked with non-fat dry milk (5% wt/vol) in 1× Tris-buffered saline-Tween-20 (TBST, cat. no. J77500, Affymetrix) for 1 h at room temperature, and were subsequently probed with primary antibodies at a predetermined optimal concentration in non-fat dry milk (5% wt/vol in TBST) overnight at 4 °C. The membranes were washed three times (5 min each) in TBST and then incubated with horse radish peroxidase (HRP)-conjugated secondary antibodies for 1 h at room temperature. Following sufficient washing with TBST, the membranes were exposed with chemiluminescent HRP substrate (cat. no. WBKLS0500, MilliporeSigma), and the signal was detected using the ChemiDoc MP Imaging System (Bio-Rad) and quantified using the ImageJ (v1.53a) software from NIH.
Plasmids were purified on miniprep columns according to the manufacturer’s protocol (Cat. No. 27106 Qiagen, Germantown, MD, USA). The construction of Flag-BCL-xL (pDL2009) and Flag-BCL-xL-K-ko (pDL2129) were described previously. Flag-BCL-2 was a gift from Clark Distelhorst (Addgene plasmid # 18003, Watertown, MA, USA). Plasmids Flag-BCL-xL-K16-only, Flag-BCL-xL-K20-only, Flag-BCL-xL-K157-only, Flag-BCL-xL-K-ko-R34K, Flag-BCL-xL-K-ko-R102K, Flag-BCL-xL-K-ko-R132K, Flag-BCL-xL-K-ko-G186K, Flag-BCL-2-K17R, Flag-BCL-2-K22R, and Flag-BCL-2-K17/22R were constructed by using Q5® Site-Directed Mutagenesis Kit (Cat. No. E0554S, NEB, Ipswich, MA, USA) and the following primer sets. Flag-BCL-xL-K-ko (pDL2129) or Flag-BCL-2 was used as the template. Flag-BCL-xL-K16-only: forward (5′-[…]a[…]-3′) and reverse (5′-[…]-3′); Flag-BCL-xL-K20-only: forward (5′-[…]a[…]-3′) and reverse (5′-[…]-3′); Flag-BCL-xL-K157-only: forward (5′-[…]a[…]-3′) and reverse (5′-[…]-3′); Flag-BCL-xL-R34K: forward (5′-[…]a[…]-3′) and reverse (5′-[…]-3′); Flag-BCL-xL-R102K: forward (5′-[…]aa[…]-3′) and reverse (5′-[…]-3′); Flag-BCL-xL-R132K: forward (5′-[…]aa[…]-3′) and reverse (5′-[…]-3′); Flag-BCL-xL-G186K: forward (5′-[…]aa[…]-3′) and reverse (5′-[…]-3′); Flag-BCL-2-K17R: forward (5′-[…]g[…]-3′) and reverse (5′-[…]-3′); Flag-BCL-2-K22R: forward (5′-[…]g[…]-3′) and reverse (5′-[…]-3′); Flag-BCL-2-K17/22R: forward (5′-cattatag[…]-3′) and reverse (5′-gatgtacc[…]-3′). DNA sequences in all these plasmids were authenticated by automatic sequencing. […] The cells were harvested using RIPA lysis buffer containing protease and phosphatase inhibitor as mentioned above. The primers used in this study are also listed in Supplementary Table 1.

[3] = 293T cell viability, MTS absorbance 490 as percent of untreated control, single replicate well, 3 uM, replicate well, normalised to own plate
[4] = 293T cell viability, MTS absorbance 490 as percent of untreated control, mean of three wells, mean of 3 wells, normalised to own plate
[5] = 293T cell viability, MTS absorbance 490 as percent of untreated control, single replicate well, replicate well, normalised to own plate

Cc1ncsc1-c1ccc([C@H](C)NC(=O)[C@@H]2C[C@@H](O)CN2C(=O)[C@@H](NC(=O)CCCCCC(=O)N2CCN(CC[C@H](CSc3ccccc3)Nc3ccc(S(=O)(=O)NC(=O)c4ccc(N5CCN(CC6=C(c7ccc(Cl)cc7)CCC(C)(C)C6)CC5)cc4)cc3S(=O)(=O)C(F)(F)F)CC2)C(C)(C)C)cc1 [DT2216]
viability at 72 h, 0.00137174 µM [1]: 106% | viability at 72 h, 0.00411523 µM [1]: 104% | viability at 72 h, 0.037037 µM [1]: 106% | viability at 72 h, 0.111111 µM [1]: 110% | viability at 72 h, 3 µM [1]: 90.6% | viability at 72 h, 0.037037 µM ([1]; 293T cell viability, MTS absorbance 490 as percent of untreated control, single replicate well, 0.037037 uM, replicate well, normalised to own plate): 105% | viability at 72 h, 0.111111 µM ([1]; 293T cell viability, MTS absorbance 490 as percent of untreated control, single replicate well, 0.111111 uM, replicate well, normalised to own plate): 109% | viability at 72 h, 3 µM [1, 3]: 89.4% | relative Flag-BCL-xL protein content ([2]; K157-only mutant, DT2216-treated 293T, Fig. 1f): 91 and 97 and 105 | relative Flag-BCL-xL protein content ([2]; K-ko mutant, DT2216-treated 293T, Fig. 1f): 95 and 102 and 90 | relative Flag-BCL-xL protein content ([2]; K-ko-G186K mutant, DT2216-treated 293T, Fig. 1f): 81 and 88 and 95 | relative Flag-BCL-xL protein content ([2]; K-ko-R34K mutant, DT2216-treated 293T, Fig. 1f): 50 and 41 and 44 | relative Flag-BCL-xL protein content ([2]; K-ko-R102K mutant, DT2216-treated 293T, Fig. 1f): 64 and 57 and 51 | relative Flag-BCL-xL protein content ([2]; K-ko-R132K mutant, DT2216-treated 293T, Fig. 1f): 55 and 50 and 58 | relative Flag-BCL-xL protein content ([2]; WT Flag-BCL-xL, DT2216-treated 293T, Fig. 1f, 3 replicates): 7 and 33 and 22

CC1(C)CCC(c2ccc(Cl)cc2)=C(CN2CCN(c3ccc(C(=O)NS(=O)(=O)c4ccc(N[C@H](CCN5CCOCC5)CSc5ccccc5)c(S(=O)(=O)C(F)(F)F)c4)cc3)CC2)C1 [ABT263, navitoclax]
viability at 72 h, 0.00137174 µM [1]: 96.2% | viability at 72 h, 0.00411523 µM [1]: 94.4% | viability at 72 h, 0.037037 µM ([1]; 293T cell viability, MTS absorbance 490 as percent of untreated control, mean of three wells, 0.037037 uM, mean of 3 wells, normalised to own plate): 107% | viability at 72 h, 0.111111 µM ([1]; 293T cell viability, MTS absorbance 490 as percent of untreated control, mean of three wells, 0.111111 uM, mean of 3 wells, normalised to own plate): 113% | viability at 72 h, 0.333333 µM [1, 4]: 103% | viability at 72 h, 1 µM [1, 4]: 98.5% | viability at 72 h, 3 µM ([1]; 293T cell viability, MTS absorbance 490 as percent of untreated control, mean of three wells, 3 uM, mean of 3 wells, normalised to own plate): 61.1% | viability at 72 h, 0.333333 µM [1, 5]: 94.3% | viability at 72 h, 1 µM [1, 5]: 93.3% | viability at 72 h, 3 µM [1, 3]: 60.7%

Cc1ncsc1-c1ccc([C@H](C)NC(=O)[C@@H]2C[C@@H](O)CN2C(=O)[C@@H](NC(=O)CCCCCCC(=O)N2CCN(C[C@]3(C)CCC(c4ccc(Cl)cc4)=C(CN4CCN(c5ccc(C(=O)NS(=O)(=O)c6ccc(N[C@H](CCN7CCOCC7)CSc7ccccc7)c(S(=O)(=O)C(F)(F)F)c6)cc5)CC4)C3)CC2)C(C)(C)C)cc1 [753b]
relative Flag-BCL-xL protein content ([2]; K16-only mutant, 753b-treated 293T, Fig. 5a): 86 and 85 and 66 | relative Flag-BCL-xL protein content ([2]; K20-only mutant, 753b-treated 293T, Fig. 5a): 29 and 42 and 46 | relative Flag-BCL-xL protein content ([2]; WT Flag-BCL-xL, 753b-treated 293T, Fig. 5a, 3 replicates): 34 and 30 and 42
